GI50 data for 28 compounds are collected here from US10100019B2.

In one data set the test system is H3122 cells. As to the kind of experiment: Cytotoxicity in non-small cell lung cancer cell line H3122 (SRB). It is filed as cell-based, human. The settings on record: H3122 cells, three days, SRB. On the procedure: Particularly, 4,000 H3122 cells containing ALK enzyme were distributed in each well of a 96 well plate together with 100 μl of DMEM (Dulbecco's Modified Eagle's Medium). One day later, the compound of the present invention was added to each well at different concentrations of […]. DMSO (dimethylsulfoxide) was added to the well that was not loaded with the compound by the same amount as the compound. Three days after the addition of the compound, DMEM was eliminated. 10% TCA (trichloroacetic acid) was added to fix the cells. The wells were washed with running water three times and the live cells were stained with SRB solution (1 sulphorodamine B). Then, OD was measured to calculate the population of the live cells.

For another data set, the system named is H2228 cells. As to the kind of experiment: cells. The conditions noted are these: Homo sapiens, NCI-H2228, 72 h, read-out: Cytotoxicity H2228 (GI50 μM), H2228 cells, three days, SRB.

As to `COc1ccc(CCN(C)C)cc1Nc1ncc(Cl)c(Nc2ccccc2S(=O)(=O)C(C)C)n1` [Example 9, 5-chloro-N2-(5-(2-(dimethylamino)ethyl)-2-methoxyphenyl)-N4-(2-(isopropylsulfonyl)phenyl)pyrimidine-2,4-diamine], the 50% growth inhibitory concentration (GI50) in the data set with H3122 cells (Homo sapiens, NCI-H3122, 72 h) came out at 0.22 µM; with H2228 cells, 0.23 µM.

As to `COc1ccc(C2(CN)CCCC2)cc1Nc1ncc(Cl)c(Nc2ccccc2S(=O)(=O)C(C)C)n1` [Example 1, N2-(5-(1-(aminomethyl)cyclopentyl)-2-methoxyphenyl)-5-chloro-N4-(2-(isopropylsulfonyl)phenyl)pyrimidine-2,4-diamine], the GI50 in the data set on H3122 cells (Homo sapiens, NCI-H3122, 72 h) worked out at 3.06 µM; in the data set on H2228 cells, 2.1 µM. As to `COC(=O)CNCCc1ccc(OC)c(Nc2ncc(Cl)c(Nc3ccccc3S(=O)(=O)C(C)C)n2)c1` [Example 26, methyl 2-(3-(5-chloro-4-(2-(isopropylsulfonyl)phenylamino)pyrimidine-2-ylamino)-4-methoxyphenethylamino)acetate], the GI50 with H3122 cells (Homo sapiens, NCI-H3122, 72 h) came to 0.14 µM; in the data set with H2228 cells it was 0.42 µM. The corresponding values for `COc1ccc(CCNC(=O)C(F)(F)F)cc1Nc1ncc(Cl)c(Nc2ccccc2S(=O)(=O)C(C)C)n1` [Example 30, N-(3-(5-chloro-4-(2-(isopropylsulfonyl)phenylamino)pyrimidine-2-ylamino)-4-methoxyphenethyl)-2,2,2-trifluoroacetamide] are 0.48 µM and 0.76 µM. In the data set with H3122 cells, `COc1ccc(CC(=O)N2CCOCC2)cc1Nc1ncc(Cl)c(Nc2ccccc2S(=O)(=O)C(C)C)n1` [Example 45, 2-(3-((5-chloro-4-((2-(isopropylsulfonyl)phenyl)amino)pyrimidine-2-yl)amino)-4-methoxyphenyl)-1-morpholinoethane-1-one] had a concentration for 50% growth inhibition (GI50) of 10 µM.

In the case of `COc1ccc(C2(CN3CCCCC3)CCCC2)cc1Nc1ncc(Cl)c(Nc2ccccc2S(=O)(=O)C(C)C)n1` [Example 5], the GI50 in the data set with H3122 cells was 10 µM; with H2228 cells it was 7.8 µM. For the compound `CCNC(=O)NCCc1ccc(OC)c(Nc2ncc(Cl)c(Nc3ccccc3S(=O)(=O)C(C)C)n2)c1` [Example 16, 1-(3-(5-chloro-4-(2-(isopropylsulfonyl)phenylamino)pyrimidine-2-ylamino)-4-methoxyphenethyl)-3-ethylurea], the GI50 with H3122 cells (Homo sapiens, NCI-H3122, 72 h) was determined as 0.41 µM; in the data set with H2228 cells, 0.52 µM. Turning to `COc1ccc(C(C)(C)CN)cc1Nc1ncc(Cl)c(Nc2cc(F)ccc2S(=O)(=O)C(C)C)n1` [Example 37, N2-(5-(1-amino-2-methylpropane-2-yl)-2-methoxyphenyl)-5-chloro-N4-(5-fluoro-2-(isopropylsulfonyl)phenyl)pyrimidine-2,4-diamine], the concentration for 50% growth inhibition (GI50) with H3122 cells and in the data set on H2228 cells was 10 µM in each case. For `CCOCCOC(=O)Cc1ccc(OC)c(Nc2ncc(Cl)c(Nc3ccccc3S(=O)(=O)C(C)C)n2)c1` [Example 43, 2-ethoxyethyl 2-(3-((5-chloro-4-((2-(isopropylsulfonyl)phenyl)amino)pyrimidine-2-yl)amino)-4-methoxyphenyl)acetate], the concentration for 50% growth inhibition (GI50) in the data set with H3122 cells (Homo sapiens, NCI-H3122, 72 h) is over 10 µM.

Turning to `COc1ccc(C(C)(C)CN)cc1Nc1ncc(Cl)c(Nc2ccc(F)cc2S(=O)(=O)C(C)C)n1` [Example 36, N2-(5-(1-amino-2-methylpropane-2-yl)-2-methoxyphenyl)-5-chloro-N4-(4-fluoro-2-(isopropylsulfonyl)phenyl)pyrimidine-2,4-diamine], the GI50 in the data set with H3122 cells and in the data set with H2228 cells was 10 µM throughout.

For the compound `CNCCc1ccc(OC)c(Nc2ncc(Cl)c(Nc3ccccc3S(=O)(=O)C(C)C)n2)c1` [Example 10, 5-chloro-N4-(2-(isopropylsulfonyl)phenyl)-N2-(2-methoxy-5-(2-(methylamino)ethyl)phenyl)pyrimidine-2,4-diamine], the concentration for 50% growth inhibition (GI50) was determined as 1.2 µM in the data set with H3122 cells (Homo sapiens, NCI-H3122, 72 h) and 1.8 µM with H2228 cells.

As to `COc1cc(C[N+](C)(C)C)c(C)cc1Nc1ncc(Cl)c(Nc2ccccc2S(=O)(=O)C(C)C)n1` [Example 69, 1-(4-((5-chloro-4-((2-(isopropylsulfonyl)phenyl)amino)pyrimidine-2-yl)amino)-5-methoxy-2-methylphenyl)-N,N,N-trimethylmethanealuminum iodide], growth in the data set on H3122 cells (Homo sapiens, NCI-H3122, 72 h) was halved (GI50) at 1.7 µM.

As for `CNC(=S)NCCc1ccc(OC)c(Nc2ncc(Cl)c(Nc3ccccc3S(=O)(=O)C(C)C)n2)c1` [Example 19, 1-(3-(5-chloro-4-(2-(isopropylsulfonyl)phenylamino)pyrimidine-2-ylamino)-4-methoxyphenethyl)-3-methylthiourea], the GI50 with H3122 cells (Homo sapiens, NCI-H3122, 72 h) stood at 1.1 µM; with H2228 cells it was 10 µM. The corresponding values for `COc1ccc(CCNCC(=O)O)cc1Nc1ncc(Cl)c(Nc2ccccc2S(=O)(=O)C(C)C)n1` [Example 27, 2-(3-(5-chloro-4-(2-(isopropylsulfonyl)phenylamino)pyrimidine-2-ylamino)-4-methoxyphenethylamino)acetic acid] are 0.42 µM and 0.51 µM. In the data set on H3122 cells, `COc1ccc(CC(=O)N2CCCCC2)cc1Nc1ncc(Cl)c(Nc2ccccc2S(=O)(=O)C(C)C)n1` [Example 46, 2-(3-((5-chloro-4-((2-(isopropylsulfonyl)phenyl)amino)pyrimidine-2-yl)amino)-4-methoxyphenyl)-1-(piperidine-1-yl)ethane-1-one] yielded a GI50 of 10 µM. Same read-out and setting: as for `COc1ccc(CC(=O)Nc2ccccc2)cc1Nc1ncc(Cl)c(Nc2ccccc2S(=O)(=O)C(C)C)n1` [Example 50, 2-(3-((5-chloro-4-((2-(isopropylsulfonyl)phenyl)amino)pyrimidine-2-yl)amino)-4-methoxyphenyl)-N-phenylacetamide], the figure is 10 µM. For the compound `COc1cc(CN)c(C)cc1Nc1ncc(Cl)c(Nc2ccccc2S(=O)(=O)C(C)C)n1` [Example 68, N2-(4-(aminomethyl)-2-methoxy-5-methylphenyl)-5-chloro-N4-(2-(isopropylsulfonyl)phenyl)pyrimidine-2,4-diamine], growth with H3122 cells (Homo sapiens, NCI-H3122, 72 h) was halved (GI50) at 0.11 µM. As to `COc1ccc(CCN)cc1Nc1ncc(Cl)c(Nc2ccccc2S(=O)(=O)C(C)C)n1` [Example 4, N2-(5-(2-aminoethyl)-2-methoxyphenyl)-5-chloro-N4-(2-(isopropylsulfonyl)phenyl) pyrimidine-2,4-diamine], the GI50 in the data set with H3122 cells was 0.08 µM; with H3122 cells (Homo sapiens, NCI-H3122, 72 h), at most 0.1 µM.

In turn, `COc1ccc(CC(N)=O)cc1Nc1ncc(Cl)c(Nc2ccccc2S(=O)(=O)C(C)C)n1` [Example 42, 2-(3-((5-chloro-4-((2-(isopropylsulfonyl)phenyl)amino)pyrimidine-2-yl)amino)-4-methoxyphenyl)acetamide] had a 50% growth inhibitory concentration (GI50) with H3122 cells (Homo sapiens, NCI-H3122, 72 h) of 0.15 µM. On the same count and under the same terms, the same measure for `COc1ccc(CCCNC(=O)C(F)(F)F)cc1Nc1ncc(Cl)c(Nc2ccccc2S(=O)(=O)C(C)C)n1` [Example 40, N-(3-(3-((5-chloro-4-((2-(isopropylsulfonyl)phenyl)amino)pyrimidine-2-yl)amino)-4-methoxyphenyl)propyl)-2,2,2-trifluoroacetamide]: 0.33 µM; for `COc1cc(Br)c(CCN)cc1Nc1ncc(Cl)c(Nc2ccccc2S(=O)(=O)C(C)C)n1` [Example 51, N2-(5-(2-aminoethyl)-4-bromo-2-methoxyphenyl)-5-chloro-N4-(2-(isopropylsulfonyl)phenyl)pyrimidine-2,4-diamine]: 1.1 µM. On the same count and under the same terms, the same measure for `COc1cc(-c2cnn(C)c2)c(CCN)cc1Nc1ncc(Cl)c(Nc2ccccc2S(=O)(=O)C(C)C)n1` [Example 52, N2-(5-(2-aminoethyl)-2-methoxy-4-(1-methyl-1H-pyrazole-4-yl)phenyl)-5-chloro-N4-(2-(isopropylsulfonyl)phenyl)pyrimidine-2,4-diamine]: 0.096 µM. Consider `COc1ccc(CC(=O)Nc2ccncc2)cc1Nc1ncc(Cl)c(Nc2ccccc2S(=O)(=O)C(C)C)n1` [Example 49, 2-(3-((5-chloro-4-((2-(isopropylsulfonyl)phenyl)amino)pyrimidine-2-yl)amino)-4-methoxyphenyl)-N-(pyridine-4-yl)acetamide], for which, in the data set with H3122 cells, the GI50 stood at 10 µM. Turning to `COc1cc(C(C)(C)N)c(C)cc1Nc1ncc(Cl)c(Nc2ccccc2S(=O)(=O)C(C)C)n1` [Example 57, N2-(4-(2-aminopropane-2-yl)-2-methoxy-5-methylphenyl)-5-chloro-N4-(2-(isopropylsulfonyl)phenyl)pyrimidine-2,4-diamine], growth with H3122 cells (Homo sapiens, NCI-H3122, 72 h) was halved (GI50) at 0.012 µM. `COc1ccc(CCCN)cc1Nc1ncc(Cl)c(Nc2ccccc2S(=O)(=O)C(C)C)n1` [Example 41, N2-(5-(3-aminopropyl)-2-methoxyphenyl)-5-chloro-N4-(2-(isopropylsulfonyl)phenyl)pyrimidine-2,4-diamine] returned a concentration for 50% growth inhibition (GI50) in the data set with H3122 cells (Homo sapiens, NCI-H3122, 72 h) of 0.19 µM.

For the compound `COc1ccc(CCN2CCNCC2)cc1Nc1ncc(Cl)c(Nc2ccccc2S(=O)(=O)C(C)C)n1` [Example 73, 5-chloro-N4-(2-(isopropylsulfonyl)phenyl)-N2-(2-methoxy-5-(2-(piperazine-1-yl)ethyl)phenyl)pyrimidine-2,4-diamine], the 50% growth inhibitory concentration (GI50) in the data set with H3122 cells (Homo sapiens, NCI-H3122, 72 h) amounted to 0.16 µM. Same read-out and setting: the same measure for `COc1ccc(CC(=O)O)cc1Nc1ncc(Cl)c(Nc2ccccc2S(=O)(=O)C(C)C)n1` [Example 44, 2-(3-((5-chloro-4-((2-(isopropylsulfonyl)phenyl)amino)pyrimidine-2-yl)amino)-4-methoxyphenyl)acetic acid]: 1 µM; for `COc1ccc(CC(=O)N2CCNCC2)cc1Nc1ncc(Cl)c(Nc2ccccc2S(=O)(=O)C(C)C)n1` [Example 48, 2-(3-((5-chloro-4-((2-(isopropylsulfonyl)phenyl)amino)pyrimidine-2-yl)amino)-4-methoxyphenyl)-1-(piperazine-1-yl) ethane-1-one]: 0.58 µM.
